In data set [1] the test system is Mycobacterium tuberculosis. Briefly: Antimycobacterial activity against Mycobacterium tuberculosis H37Rv assessed as microbial growth inhibition measured after 3 days by alamar blue assay. In kind it is functional. To be noted: 72 h, time 3 day. A general note: Resazurin is reduced to fluorescent resorufin, in cell work by metabolically active cells.
Data set [2] deals with Mycobacterium tuberculosis. Briefly: Antimycobacterial activity against Mycobacterium tuberculosis H37Rv assessed as reduction in bacterial growth incubated for 7 days by resazurin based assay. In kind it is functional. The settings on record: 168 h, time 7 day.
Data set [3] relates to Mycobacterium tuberculosis. Briefly: Antimycobacterial activity against Mycobacterium tuberculosis H37Rv assessed as reduction in bacterial growth. Format: functional.
In a further data set the test system is HepG2. Briefly: Cytotoxicity against human HepG2 cells assessed as reduction in cell growth. Format: functional, cell-based.
A short description of data set [4]: Cytotoxicity against African green monkey Vero cells assessed as reduction in cell viability. To be noted: African green monkey (Chlorocebus sabaeus). Format: toxicity, cell-based.
Data set [5] in a line: Microsomal stability in human liver microsomes assessed as half life. In kind it is ADME, Microsome.
The subject of data set [6] is Mycobacterium tuberculosis. Kind of data set: Antimycobacterial activity against Mycobacterium tuberculosis H37Rv assessed as reduction in microbial growth after 7 days by alamar blue assay. In kind it is functional. To be noted: 168 h, time 7 day.
Data set [7] can be described thus: Metabolic stability in mouse liver microsomes assessed as intrinsic clearance. In kind it is ADME, Microsome. (Microsomes from liver hold many membrane-bound enzymes, among them those of drug oxidation.)
In data set [8] the test system is Mycobacterium tuberculosis. Kind of data set: Antimycobacterial activity against Mycobacterium tuberculosis H37Rv assessed as reduction in bacterial cell growth by resazurin reduction method. In kind it is functional.
In data set [9] the test system is Mycobacterium tuberculosis. Kind of data set: Antimycobacterial activity against Mycobacterium tuberculosis H37Rv assessed as reduction in bacterial growth measured after 16 to 24 hrs by microplate alamar blue assay. Format: functional. The settings on record: time 16-24 hrs.
Data set [10] addresses Polyketide synthase Pks13 (Mycobacterium tuberculosis (strain ATCC 25618 / H37Rv), UniProt I6X8D2). Briefly: Inhibition of Mycobacterium tuberculosis recombinant Pks13 expressed in Escherichia coli BL21 (DE3) cells using 4-methylumbelliferyl heptanoate as substrate incubated for 3 hrs by […] based analysis. Background: Fluorescence polarisation rises when a labelled molecule tumbles more slowly, as on binding a larger partner.

For data set [11], the system named is Mycobacterium tuberculosis. Briefly: Antitubercular activity against Mycobacterium tuberculosis H37Rv assessed as reduction in microbial growth measured after 3 weeks by resazurin microplate reader assay. The settings on record: 504 h. Format: functional.
For data set [12], the system named is Mycobacterium tuberculosis. Briefly: Antimycobacterial activity against Mycobacterium tuberculosis H37Rv ATCC 27294 assessed as reduction in bacterial growth after 21 days by serial dilution method. The settings on record: H37Rv ATCC 27294, 504 h, time 21 day. In kind it is functional.
Data set [13] deals with Mycobacterium tuberculosis. Briefly: Antibacterial activity against Mycobacterium tuberculosis H37Rv assessed as inhibition of cell growth. Format: functional.

This note sets out measurements from ChEMBL document CHEMBL5634083, “Targeting polyketide synthase 13 for the treatment of tuberculosis” (Eur J Med Chem, 2023).

pIC50: −log10 of the molar value. Converted amounts (≈) assume the structure as drawn. A value given as a limit tells only on which side of the number the result lay.

Sequence of Polyketide synthase Pks13 (I6X8D2 whole entry): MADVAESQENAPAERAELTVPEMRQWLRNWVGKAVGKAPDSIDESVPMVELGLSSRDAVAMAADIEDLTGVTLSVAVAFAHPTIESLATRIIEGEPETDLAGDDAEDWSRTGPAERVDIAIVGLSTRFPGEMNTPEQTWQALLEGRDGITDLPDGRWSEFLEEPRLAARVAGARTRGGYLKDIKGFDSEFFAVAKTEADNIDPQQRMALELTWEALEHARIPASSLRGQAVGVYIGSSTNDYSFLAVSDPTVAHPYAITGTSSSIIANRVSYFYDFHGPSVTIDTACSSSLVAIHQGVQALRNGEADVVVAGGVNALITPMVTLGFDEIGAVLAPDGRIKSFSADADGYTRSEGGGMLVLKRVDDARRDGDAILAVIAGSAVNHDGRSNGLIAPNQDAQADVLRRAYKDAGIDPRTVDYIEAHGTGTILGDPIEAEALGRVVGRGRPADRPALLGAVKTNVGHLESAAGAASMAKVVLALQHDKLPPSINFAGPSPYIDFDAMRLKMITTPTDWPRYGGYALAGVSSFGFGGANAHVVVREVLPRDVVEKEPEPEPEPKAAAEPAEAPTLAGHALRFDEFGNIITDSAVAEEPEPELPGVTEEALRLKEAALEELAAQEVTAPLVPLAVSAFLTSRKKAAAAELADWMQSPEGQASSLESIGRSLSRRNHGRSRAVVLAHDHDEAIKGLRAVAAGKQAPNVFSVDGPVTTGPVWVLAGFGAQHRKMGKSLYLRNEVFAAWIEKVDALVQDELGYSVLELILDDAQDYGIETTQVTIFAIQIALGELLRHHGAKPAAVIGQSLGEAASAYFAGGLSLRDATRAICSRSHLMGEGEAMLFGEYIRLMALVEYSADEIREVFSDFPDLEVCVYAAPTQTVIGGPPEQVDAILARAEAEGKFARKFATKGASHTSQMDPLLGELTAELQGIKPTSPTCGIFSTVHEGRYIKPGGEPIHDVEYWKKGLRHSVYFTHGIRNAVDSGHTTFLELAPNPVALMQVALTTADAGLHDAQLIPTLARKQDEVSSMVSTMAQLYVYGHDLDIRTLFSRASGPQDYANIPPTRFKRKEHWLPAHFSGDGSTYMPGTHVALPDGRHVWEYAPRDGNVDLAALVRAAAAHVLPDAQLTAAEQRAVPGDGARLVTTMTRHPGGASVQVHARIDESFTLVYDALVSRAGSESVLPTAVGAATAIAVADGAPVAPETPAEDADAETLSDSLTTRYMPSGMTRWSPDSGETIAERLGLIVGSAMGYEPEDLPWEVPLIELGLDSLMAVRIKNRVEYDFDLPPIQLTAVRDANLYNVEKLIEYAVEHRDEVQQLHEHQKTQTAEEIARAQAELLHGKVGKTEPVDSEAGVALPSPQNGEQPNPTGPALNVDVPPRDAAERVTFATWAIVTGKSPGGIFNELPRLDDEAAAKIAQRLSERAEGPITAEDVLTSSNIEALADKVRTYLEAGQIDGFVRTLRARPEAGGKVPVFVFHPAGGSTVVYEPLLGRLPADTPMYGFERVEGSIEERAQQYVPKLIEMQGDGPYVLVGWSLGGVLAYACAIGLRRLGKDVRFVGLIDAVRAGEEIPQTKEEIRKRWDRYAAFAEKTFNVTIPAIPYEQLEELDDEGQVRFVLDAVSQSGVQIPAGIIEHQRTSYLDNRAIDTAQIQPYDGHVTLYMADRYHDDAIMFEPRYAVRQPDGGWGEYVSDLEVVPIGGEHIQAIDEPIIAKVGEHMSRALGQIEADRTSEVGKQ

As to `C=CCCCCCCC[C@H]1C(=O)O[C@@H]1CCCCCNC(=O)c1ccc(N(C)C)cc1`, in [1], the MIC (as a rule, the smallest concentration in the dilution series that meets the test's criterion for growth inhibition) was 1.6 µM (≈ 0.686 µg/mL).

In the case of `COC(=O)c1c(NC(=O)c2c(F)c(F)c(F)c(F)c2F)sc2c1CCCCC2`, the MIC in data set [2] was 1 µM (≈ 0.419 µg/mL); in [3], 0.5 µM (≈ 0.21 µg/mL). Also, the negative-log IC50 (pIC50) – broadly, −log10 of the IC50, conventionally taken in molar units – with HepG2 is 5.14; in data set [4], 4.76.

As for `CCOC(=O)c1c(NC(=O)c2c(F)c(F)c(F)c(F)c2F)sc(C(N)=O)c1C`, the minimal inhibitory concentration (MIC) in [2] and in data set [3] was 0.5 µM (≈ 0.211 µg/mL) each time.

With `CCOC(=O)c1c(-c2ccccc2)oc2ccc(O)c(CN3CCC(C)CC3)c12`, in data set [5], the half-life (commonly how long it takes for the measured level to halve) worked out at 18.8 min.

In the case of `CCOC(=O)c1c(NC(=O)c2c(F)c(F)c(F)c(F)c2F)sc2c1CCN(CC)C2`, the minimum inhibitory concentration (MIC) in data set [6] was 0.23 µM.

For the compound `CNC(=O)c1c(-c2ccc(O)cc2)oc2ccc(O)c(CN3CCCCC3)c12`, the CLH in data set [7] was less than 0.5 mL/min/g.

Take `CNC(=O)c1c(-c2ccccc2)oc2ccc(O)c(CN3CCCCC3)c12`: the minimal inhibitory concentration (MIC) in data set [8] came out at 0.29 µM (≈ 0.106 µg/mL).

Regarding `O=c1cc(-c2ccccc2O)oc2ccc(O)c(CN3CCC3)c12`, the MIC in data set [9] was 0.45 µg/mL (≈ 1.39 µM). Moreover, the negative logarithm of the IC50 (pIC50) in data set [10] was 7.84.

Consider `O=C(c1ccccc1)c1cc(Cl)ccc1OCc1nc(-c2ccc(C(F)(F)F)cc2)no1`, for which, in [11], the minimum inhibitory concentration (MIC) came to 8 µg/mL.

Consider `COc1ccccc1OCCNCC(O)COc1cccc2[nH]c3ccccc3c12` (stereo not drawn) [CARVEDILOL], for which the MIC in [12] was 32 µg/mL (≈ 78.7 µM).

In the case of `Cc1ccc(-c2cc(C(F)(F)F)nn2-c2ccc(S(N)(=O)=O)cc2)cc1` [CELECOXIB], in [12], the minimum inhibitory concentration (MIC) stood at 64 µg/mL (≈ 168 µM).

Regarding `CCCCCCCCCCC[C@@H](C[C@@H]1OC(=O)[C@H]1CCCCCC)OC(=O)[C@H](CC(C)C)NC=O` [ORLISTAT], the minimal inhibitory concentration (MIC) in data set [13] turned out to be 15 µM (≈ 7.44 µg/mL).

In the case of `CCN(CC)CCCC(C)Nc1c2ccc(Cl)cc2nc2ccc(OC)cc12` (stereo not drawn) [QUINACRINE], in [12], the MIC turned out to be 64 µg/mL (≈ 160 µM).
